Molecules are shown by their SMILES. Structures can show the parent of a compound that is named as a salt.

Results on 17 compounds are retold here after US10428080B2, “TBK/IKK inhibitor compounds and uses thereof” (Merck Patent GmbH, priority 2015, dated 2019).

The assay has as its target T1, TBK1 (Homo sapiens, UniProt Q9UHD2).
T1 sequence (Q9UHD2 1-729): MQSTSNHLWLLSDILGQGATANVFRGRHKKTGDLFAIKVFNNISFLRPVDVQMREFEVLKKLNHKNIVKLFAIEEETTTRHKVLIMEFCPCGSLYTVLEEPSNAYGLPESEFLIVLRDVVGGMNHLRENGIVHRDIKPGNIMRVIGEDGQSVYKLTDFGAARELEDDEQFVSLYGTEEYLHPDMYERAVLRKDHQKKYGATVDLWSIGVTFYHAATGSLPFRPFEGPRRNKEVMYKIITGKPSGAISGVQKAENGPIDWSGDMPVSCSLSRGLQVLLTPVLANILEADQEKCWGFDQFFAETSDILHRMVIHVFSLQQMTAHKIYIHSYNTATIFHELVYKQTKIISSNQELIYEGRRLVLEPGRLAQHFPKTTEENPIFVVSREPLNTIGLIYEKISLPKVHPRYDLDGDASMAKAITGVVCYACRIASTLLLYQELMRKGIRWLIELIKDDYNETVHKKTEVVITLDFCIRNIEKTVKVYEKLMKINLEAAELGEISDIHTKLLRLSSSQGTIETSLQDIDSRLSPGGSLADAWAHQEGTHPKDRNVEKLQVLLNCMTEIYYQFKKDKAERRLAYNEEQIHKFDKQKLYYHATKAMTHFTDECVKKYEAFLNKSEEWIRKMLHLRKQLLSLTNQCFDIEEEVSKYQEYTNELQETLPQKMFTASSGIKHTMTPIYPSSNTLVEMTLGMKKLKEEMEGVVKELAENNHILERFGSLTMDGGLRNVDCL
The assay can be described thus: TBK Biochemical Assay. As to conditions: read-out: TBK1 IC50. As to the method:
Example 482: TBK Biochemical Assay
Test compounds were transferred into Labcyte polypropylene 384 well plates (P055-25) and diluted to 3 mM using DMSO. 3 mM test compounds were dispensed using Labcyte ECHO dose response module into Greiner 784075 plates (columns 3-12 and 13-22, 10 point 1:4) so that high concentration was 30 uM final. 100 uM of a reference compound (1 uM final high concentration). Backfilling was performed if necessary so that all wells contain 1% DMSO final: […]
add 75 nl DMSO/well into columns 1, 2 and 24 using Labcyte Echo. add 75 nl 1.0 mM staurosporine/well into column 23 using Labcyte Echo ([…]) add 4.5 ul enzyme/well using multidrop dispenser add 3 ul substrate/well using multidrop dispenser incubate at 25° C. in Heidolph incubator for 90 min. add 7.5 ul 2× stop buffer using multidrop dispenser read on labchip ez reader II using TBK1.job
Raw data files were opened in the Caliper LabChip Reviewer program (Version 3.0.265.0 SP2) and peak assignments were adjusted to reflect “substrate first” with the software's post-run analysis options. A spline-fit baseline was applied using the software's analysis algorithm.
By IC50 is commonly meant the concentration that gives 50% inhibition. With `CN(C)C(=O)c1ccc(-c2cc3nccc(-c4cc(F)c(OC5CCOC6(CC6)C5)c(C#N)c4)c3o2)cc1` (centres unmarked) [Compound 288, 4-[7-(3-cyano-5-fluoro-4-[4-oxaspiro[2.5]octan-7-yloxy]phenyl)furo[3,2-b]pyridin-2-yl]-N,N-dimethylbenzamide hydrochloride], the IC50 was over 5 µM.
On to `CC1COCC(C)C1Oc1c(F)cc(-c2ccnc3cc(-c4ccc(C(=O)N(C)C)cc4)oc23)cc1C#N` (centres unmarked) [Compound 289, 4-(7-[3-cyano-4-[(3,5-dimethyloxan-4-yl)oxy]-5-fluorophenyl]furo[3,2-b]pyridin-2-yl)-N,N-dimethylbenzamide], for which the half-inhibitory concentration (IC50) was over 5 µM.
Next, `COc1cc(C(=O)N(C)C)ccc1-c1cc2nccc(-c3cc(F)c(OC4CCOC5(CC5)C4)c(C#N)c3)c2o1` (centres unmarked) [Compound 293, 4-[7-(3-cyano-5-fluoro-4-[4-oxaspiro[2.5]octan-7-yloxy]phenyl)furo[3,2-b]pyridin-2-yl]-3-methoxy-N,N-dimethylbenzamide]: over 5 µM; `COc1cc(C(=O)N(C)C)ccc1-c1cc2nccc(-c3cc(F)c(OC4C(C)COCC4C)c(C#N)c3)c2o1` (centres unmarked) [Compound 294, 4-(7-[3-cyano-4-[(3,5-dimethyloxan-4-yl)oxy]-5-fluorophenyl]furo[3,2-b]pyridin-2-yl)-3-methoxy-N,N-dimethylbenzamide]: over 5 µM; `CN(C)C(=O)c1ccc(-c2cc3ncc(C4CC4)c(-c4ccc(NC5CCOCC5)c(C#N)c4)c3o2)c(F)c1` [Compound 309, 4-(7-[3-cyano-4-[(oxan-4-yl)amino]phenyl]-6-cyclopropylfuro[3,2-b]pyridin-2-yl)-3-fluoro-N,N-dimethylbenzamide]: over 5 µM.
The figure for `CN(C)C(=O)c1ccc(-c2cc3ncc(C4CC4)c(-c4ccc(OC5CCOCC5)c(C#N)c4)c3o2)c(F)c1` [Compound 310, 4-[7-[3-cyano-4-(oxan-4-yloxy)phenyl]-6-cyclopropylfuro[3,2-b]pyridin-2-yl]-3-fluoro-N,N-dimethylbenzamide] is over 5 µM; for `CN(CCO)C(=O)c1ccc(-c2cc3ncc(C4CC4)c(-c4ccc(NC5CCOCC5)c(C#N)c4)c3o2)c(F)c1` [Compound 311, 4-(7-(3-cyano-4-(tetrahydro-2H-pyran-4-ylamino)phenyl)-6-cyclopropylfuro[3,2-b]pyridin-2-yl)-3-fluoro-N-(2-hydroxyethyl)-N-methylbenzamide] it is over 5 µM.
On to `CN(CCO)C(=O)c1ccc(-c2cc3ncc(C4CC4)c(-c4ccc(OC5CCOCC5)c(C#N)c4)c3o2)c(F)c1` [Compound 312, 4-(7-(3-cyano-4-(tetrahydro-2H-pyran-4-yloxy)phenyl)-6-cyclopropylfuro[3,2-b]pyridin-2-yl)-3-fluoro-N-(2-hydroxyethyl)-N-methylbenzamide], for which the IC50 is over 5 µM.
Next, `COc1cc(C(=O)N(C)C)cnc1-c1cc2ncc(C(C)C)c(-c3ccc(OC4CCOCC4)c(C#N)n3)c2o1` [Compound 331, 6-[7-[6-cyano-5-(oxan-4-yloxy)pyridin-2-yl]-6-(propan-2-yl)furo[3,2-b]pyridin-2-yl]-5-methoxy-N,N-dimethylpyridine-3-carboxamide hydrochloride]: over 5 µM.
`COc1cc(C(=O)N(C)C)cnc1-c1cc2ncc(C(C)C)c(-c3ccc(OC4CCOCC4)c(C#N)c3)c2o1` [Compound 332, 6-[7-[3-cyano-4-(oxan-4-yloxy)phenyl]-6-(propan-2-yl)furo[3,2-b]pyridin-2-yl]-5-methoxy-N,N-dimethylpyridine-3-carboxamide]: the half-maximal inhibitory concentration (IC50) is over 5 µM.
As for `COc1cc(C(=O)N(C)C)cnc1-c1cc2ncc(C(C)C)c(-c3ccc(NC4CCOCC4)c(C#N)c3)c2o1` [Compound 335, 6-(7-[3-cyano-4-[(oxan-4-yl)amino]phenyl]-6-(propan-2-yl)furo[3,2-b]pyridin-2-yl)-5-methoxy-N,N-dimethylpyridine-3-carboxamide hydrochloride], the IC50 was over 5 µM.
Next, `COc1cc(C(=O)N(C)C)cnc1-c1cc2ncc(Cl)c(-c3ccc(NC4CCOCC4)c(C#N)c3)c2o1` [Compound 337, 6-(6-chloro-7-[3-cyano-4-[(oxan-4-yl)amino]phenyl]furo[3,2-b]pyridin-2-yl)-5-methoxy-N,N-dimethylpyridine-3-carboxamide]: over 5 µM; `COc1cc(C(=O)N(C)C)cnc1-c1cc2ncc(C3CC3)c(-c3ccc(NC4CCOCC4)c(C#N)n3)c2o1` [Compound 353, 6-(7-[6-cyano-5-[(oxan-4-yl)amino]pyridin-2-yl]-6-cyclopropylfuro[3,2-b]pyridin-2-yl)-5-methoxy-N,N-dimethylpyridine-3-carboxamide hydrochloride]: over 5 µM.
On to `COc1cc(C(=O)N(C)CCO)cnc1-c1cc2ncc(C(C)C)c(-c3ccc(OC4CCOCC4)c(C#N)n3)c2o1` [Compound 359, 6-[7-[6-cyano-5-(oxan-4-yloxy)pyridin-2-yl]-6-(propan-2-yl)furo[3,2-b]pyridin-2-yl]-N-(2-hydroxyethyl)-5-methoxy-N-methylpyridine-3-carboxamide hydrochloride], for which the IC50 was over 5 µM.
For `COc1cc(C(=O)N(C)C)cnc1-c1cc2ncc(C(C)C)c(-c3ccc(NC4CCOCC4)c(C#N)n3)c2o1` [Compound 361, 6-(7-[6-cyano-5-[(oxan-4-yl)amino]pyridin-2-yl]-6-(propan-2-yl)furo[3,2-b]pyridin-2-yl)-5-methoxy-N,N-dimethylpyridine-3-carboxamide], the IC50 is over 5 µM.
Take `COc1ccc(C#N)cc1-c1ccnc2cc(-c3ncc(C(=O)N(C)C)cc3OC)oc12` [Compound 490, 6-{7-[5-Cyano-2-methoxy-phenyl)-furo[3,2-b]pyridin-2-yl}-5-methoxy-N,N-dimethyl-nicotinamide]: the IC50 is over 5 µM.
Next, `COc1cc(C(=O)N(C)C)cnc1-c1cc2ncc(C3CC3)c(-c3ccc(NC4CCOCC4)c(C#N)c3)c2o1` [Compound 522, 6-(7-[3-cyano-4-[(oxan-4-yl)amino]phenyl]-6-cyclopropylfuro[3,2-b]pyridin-2-yl)-5-methoxy-N,N-dimethylpyridine-3-carboxamide]: over 5 µM.
